Measurements: patent US6534073B2, “Skin care cosmetic compositions containing carboxymethylates of branched alcohols and/or ethoxylates thereof” (Unilever Home & Personal Care USA division of Conopco, Inc., priority 2000, dated 2003)
Where two headings read alike, the source gives them in different places. Marks after values point to notes of the source that are not given here.

Columns and labels:
human sebocytes = experiment: Inhibition of sebocyte lipogenesis (14C-acetate incorporation); type: cell-based; conditions: for inhibition of lipogenesis (result in words): summary of Tables 2 and 3
Procedure: This example provided data on inhibition of sebocyte lipogenesis.
Secondary cultures of human sebocytes obtained from an adult […] were grown in 48-well tissue culture plates (Costar Corp.; Cambridge, Mass.) or 96-well tissue culture plates (Packard Co.; Meriden, Conn.) until confluent. Sebocyte growth medium consisted of Clonetics Keratinocyte Basal Medium (KBM) 5 supplemented with 14 μg/ml bovine pituitary extract, 0.4 μg/ml hydrocortisone, 5 μg/ml insulin, 10 ng/ml epidermal growth factor, 1.2×10^−10 M cholera toxin, 100 units/ml penicillin, and 100 μg/ml streptomycin. All cultures were incubated at 37° C. in the presence of 7.5% CO2. Medium was changed three times per week.
On the day of experimentation, the growth medium was removed and the sebocytes washed three times with sterile Dulbecco's Modified Eagle Medium (DMEM; phenol red free). Fresh DMEM was added to each sample (duplicates, triplicates, or quadruplicates depending on the experiment) with 5 μL of test agent solubilized in ethanol or sterile, distilled water either alone or in the presence of one or 10 μM of retinol. Controls consisted of addition of ethanol alone, retinol alone or phenol red, which has estrogen-like activity and was included as a positive control.
Each plate was returned to the incubator for 20 hours followed by the addition of ^14C-acetate buffer (5 mM final concentration, 56 mCi/mmol specific activity). Sebocytes were returned to the incubator for four hours after which each culture was rinsed three times with phosphate buffered saline to remove unbound label. Radioactive label remaining in the sebocytes was harvested and counted using a Beckman scintillation counter.

[1] = test system: procollagen I production by neonatal human dermal fibroblasts; experiment: Procollagen I production by fibroblasts (slot blot, densitometry); type: cell-based; conditions: for Average OD Reading / Fold increase Over Control: Table 4; for Average OD Reading: procollagen I densitometer reading, control 0.783; for Fold increase Over Control / % Increase (+) or % decrease (−) over control: procollagen I; for % Increase (+) or % decrease (−) over control: positive control, concentration not given
Procedure: This example measured production of procollagen I by fibroblasts in response to treatment with various straight chain and branched alcohols alone.
Neonatal human dermal fibroblasts were purchased from Clonetics Corp., San Diego, Calif. All materials for cell culture were purchased from Life Technologies, N.Y. (and used in passages 5-10). Cells were seeded at a density of approximately 10,000/well in the inner 48 wells of a 96-well plate in a medium containing DMEM (Dulbecco's Modified Eagle's Medium), high-glucose supplemented with 2 mM L-glutamine, 10% fetal bovine serum, and antibiotic and antimycotic solutions. Cells were then grown to confluence for 2 days. At confluence, the medium was removed and cells were washed with serum-free DMEM, and each well dosed with 200 μl of a solution of a test compound in serum-free DMEM. Each dosing was replicated in a total of six wells. […] After 24 hours, the test compound solution or the control solution was removed and cells redosed with 100 μl of a solution of a test compound in serum-free DMEM.
Nitrocellulose membrane and 3 sheets of filter paper were soaked in TRIS buffered saline (TBS, pH 7.3.). BioRad slot blot apparatus (BioRad Labs, CA) was set up with 3 sheets filter paper on bottom, membrane on top, and tightened. […] TBS was added per well. Vacuum was used to suck TBS through membrane. The test compound solution or control was vortexed, then 100 μl was loaded per well and gravity filtered. Procollagen from the test solution was bound to the membrane at this point in the procedure. Membrane was removed from the apparatus, excess cut off, and bottom right corner notched for orientation. The membrane was placed in blocking solution (5% milk powder in Dulbecco's phosphate buffered saline) overnight at 4° C., with shaking. The membrane was then incubated for 1.5 hrs at room temperature with 1.5 mL Rat Anti-Human Procollagen Amino-Terminal Ab (Chemicon MAB1912) in TBS with 0.1% BSA (Bovine Serum Albumin) (ratio of antibody to buffer/BSA was 1:100) in a sealed bag with shaking. The membrane was then removed; washed 3 times for 5 minutes in TBS/0.1% Tween. The membrane was then incubated for 1 hour at room temperature in 2 mL of Biotinylated Anti-Rat Peroxidase-Conjugated Ab (Vector Labs) in TBS with 0.1% BSA (ratio of antibody to buffer/BSA was 1:1000) in a sealed bag with shaking. The membrane was then stained using the following solution:
12.5 mg 3-amino 9-ethyl carbazole (Sigma)
3.125 (approximately) mL DMF (N,N-dimethylformamide, from Sigma)
The membrane was stained until color developed and the reaction stopped with 2 washes for 10 minutes in tap water. The blot was scanned on a Bio-Rad GS700 Image Analysis densitometer. Percent change from control was calculated from densitometer readings as follows: [(Reading for test compound-Reading for control)/Reading for control]*100. Control has a reading of 100%. Statistical significance (p value) was calculated using student's t-test.
TGF-B is a positive control, ensuring the integrity of the assay: transforming growth factor beta is known to increase procollagen I in fibroblasts.
This example measured production of procollagen I by fibroblasts in response to treatment with various test compounds.
The experiment was conducted as described in Example 1 above. Fold increase was calculated as a ratio of densitometer reading for cells treated with a test compound over control.

[2] = Homo sapiens, Table 2, 14C-acetate label in sebocytes, read-out: % of Control
[3] = Homo sapiens, Table 3, 14C-acetate label in sebocytes, read-out: % of Control
[4] = Table 2, 14C-acetate label in sebocytes, 1 μM
[5] = Table 2, 14C-acetate label in sebocytes, 10 μM
[6] = Table 2, 14C-acetate label in sebocytes, 100 μM

O=S1(=O)OC(c2ccc(O)cc2)(c2ccc(O)cc2)c2ccccc21 [Phenol Red, reference compound]
activity at 28 µM (human sebocytes; [2]): 56.5% | activity at 280 µM (human sebocytes; [2]): 43.3% | activity at 28 µM (human sebocytes; [3]): 92% | activity at 280 µM (human sebocytes; [3]): 61.7%

CC1=C(/C=C/C(C)=C/C=C/C(C)=C/CO)C(C)(C)CCC1 [Retinol, reference compound]
activity at 1 µM (human sebocytes; Homo sapiens, Table 3, 14C-acetate label in sebocytes, 1 μM, read-out: % of Control): 91.8% | activity at 10 µM (human sebocytes; Homo sapiens, Table 3, 14C-acetate label in sebocytes, 10 μM, read-out: % of Control): 106%

Iso-tridecyl carboxymethylate (sodium salt)
% of Control (human sebocytes; [4]): 81.5* % | % of Control (human sebocytes; [5]): 49.6* % | % of Control (human sebocytes; [6]): 1.2* % | % of Control (human sebocytes; Table 3, 14C-acetate label in sebocytes, 1 μM): 75.8* % | % of Control (human sebocytes; Table 3, 14C-acetate label in sebocytes, 10 μM): 66.0* % | inhibition of lipogenesis (result in words) (human sebocytes): improved inhibition of lipogenesis

TGF-B: transforming growth factor beta, positive control known to increase procollagen I in fibroblasts [reference compound]
Average OD Reading ([1]; 0.001%): 1.348 | Fold increase Over Control ([1]; 0.001%): 1.72* Fold | % Increase (+) or % decrease (−) over control ([1]; Table 1 Experiment 1): +50* % | % Increase (+) or % decrease (−) over control ([1]; Table 1 Experiment 2): +140* %

iso-tridecyl carboxymethylate
Average OD Reading ([1]; 0.0001%): 0.777 | Average OD Reading ([1]; 0.001%): 1.295 | Fold increase Over Control ([1]; 0.0001%): 0.99 Fold | Fold increase Over Control ([1]; 0.001%): 1.65* Fold | collagen synthesis by fibroblasts (result in words) ([1]; summary of Tables 1 and 4): increased collagen production | % of Control (human sebocytes; [4]): 80.0* % | % of Control (human sebocytes; [5]): 58.2* % | % of Control (human sebocytes; [6]): 1.4* % | inhibition of lipogenesis (result in words) (human sebocytes): enhanced inhibition of lipogenesis at all tested concentrations
